Experiments:
Format in all cases: in vitro ADME
rat Cyp1a2 = biological target: T1, rat Cyp1a2 (Rattus norvegicus, UniProt P04799); assay: Recombinant rat Cyp phenotype profiling, 1A2; conditions: 60 min
T1 construct: purchased BD Gentest; host or cells: baculovirus infected insect cells
Method: (§1) Identification of the drug metabolizing enzymes (DMEs) of A-998679 was studied in cDNA expressed recombinant enzymes prepared from baculovirus infected insect cells over-expressing rat Cyp isoforms (BD Gentest, Woburn, MA) as listed in Table 2. Incubations were conducted in duplicate using Supersomes. The incubation mixture contained 100 pmol/ml of enzymes, except for Cyp1a1 (200 pmol/ml), 0.1 or 0.21 μM of [^3H]A-998679 in 100 mM phosphate buffer (pH 7.4). Reactions were initiated with the addition of NADPH at a final concentration of 1 mM and incubated at 37°C for 60 min. At the end of the incubation period, the incubations were terminated by the addition of acetonitrile/ethanol (50/50, v/v) solution. Insect control samples lacking expressed enzyme were used as negative control. The degree of metabolism of A-998679 was assessed by percent of parent remaining using the radio-HPLC method described below.
(§2) Radiolabeled components from the above assays were profiled following separation by HPLC with on line radioflow detector. The system consisted of an Agilent 1100 Series quaternary pump and autosampler connected to a Packard 500TR flow scintillation detector. The data were processed using the Radiomatic™ Flo-one® software v3.65. The scintillant (Perkin Elmer FLO-SCINT™ III) flow was maintained at 3 ml/min. […]

rat Cyp 2A1 = biological target: T2, rat Cyp 2A1 (Rattus norvegicus, UniProt P11711); assay: Recombinant rat Cyp phenotype profiling, 2A1; conditions: 60 min
T2 construct: purchased BD Gentest; host or cells: baculovirus infected insect cells
T2 sequence (P11711 whole entry): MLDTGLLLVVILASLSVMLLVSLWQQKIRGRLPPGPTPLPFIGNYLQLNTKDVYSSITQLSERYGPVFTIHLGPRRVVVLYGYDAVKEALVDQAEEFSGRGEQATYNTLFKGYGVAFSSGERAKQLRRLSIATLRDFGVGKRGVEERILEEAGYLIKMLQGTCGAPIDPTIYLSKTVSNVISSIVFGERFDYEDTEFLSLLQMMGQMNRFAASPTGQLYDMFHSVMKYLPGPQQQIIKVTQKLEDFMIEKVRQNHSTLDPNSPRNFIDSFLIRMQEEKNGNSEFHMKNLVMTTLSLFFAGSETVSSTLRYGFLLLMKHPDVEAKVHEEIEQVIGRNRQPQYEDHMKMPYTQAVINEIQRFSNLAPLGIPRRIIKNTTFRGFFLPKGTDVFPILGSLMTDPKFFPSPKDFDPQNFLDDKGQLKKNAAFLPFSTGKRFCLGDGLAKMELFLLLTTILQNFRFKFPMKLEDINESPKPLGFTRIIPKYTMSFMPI
Method: as §1, §2

rat Cyp2b1 = biological target: T3, rat Cyp2b1 (Rattus norvegicus, UniProt P00176); assay: Recombinant rat Cyp phenotype profiling, 2B1; conditions: 60 min
T3 construct: purchased BD Gentest; host or cells: baculovirus infected insect cells
T3 sequence (P00176 whole entry): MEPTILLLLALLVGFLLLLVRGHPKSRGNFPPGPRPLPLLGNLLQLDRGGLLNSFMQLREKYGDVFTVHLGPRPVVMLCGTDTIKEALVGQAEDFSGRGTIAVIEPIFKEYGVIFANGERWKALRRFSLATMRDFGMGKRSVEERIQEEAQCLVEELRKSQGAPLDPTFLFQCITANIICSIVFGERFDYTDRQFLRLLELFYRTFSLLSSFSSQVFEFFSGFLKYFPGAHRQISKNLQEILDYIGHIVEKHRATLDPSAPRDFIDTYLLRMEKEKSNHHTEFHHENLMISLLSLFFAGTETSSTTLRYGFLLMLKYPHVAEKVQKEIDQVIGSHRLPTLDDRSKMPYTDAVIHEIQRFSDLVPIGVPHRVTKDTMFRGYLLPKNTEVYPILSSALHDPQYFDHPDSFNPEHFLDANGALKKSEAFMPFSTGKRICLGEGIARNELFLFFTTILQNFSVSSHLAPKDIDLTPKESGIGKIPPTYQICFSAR
Method: as §1, §2

rat Cyp 2C6 = biological target: T4, rat Cyp 2C6 (Rattus norvegicus, UniProt P05178); assay: Recombinant rat Cyp phenotype profiling, 2C6; conditions: 60 min
T4 construct: purchased BD Gentest; host or cells: baculovirus infected insect cells
T4 sequence (P05178 whole entry): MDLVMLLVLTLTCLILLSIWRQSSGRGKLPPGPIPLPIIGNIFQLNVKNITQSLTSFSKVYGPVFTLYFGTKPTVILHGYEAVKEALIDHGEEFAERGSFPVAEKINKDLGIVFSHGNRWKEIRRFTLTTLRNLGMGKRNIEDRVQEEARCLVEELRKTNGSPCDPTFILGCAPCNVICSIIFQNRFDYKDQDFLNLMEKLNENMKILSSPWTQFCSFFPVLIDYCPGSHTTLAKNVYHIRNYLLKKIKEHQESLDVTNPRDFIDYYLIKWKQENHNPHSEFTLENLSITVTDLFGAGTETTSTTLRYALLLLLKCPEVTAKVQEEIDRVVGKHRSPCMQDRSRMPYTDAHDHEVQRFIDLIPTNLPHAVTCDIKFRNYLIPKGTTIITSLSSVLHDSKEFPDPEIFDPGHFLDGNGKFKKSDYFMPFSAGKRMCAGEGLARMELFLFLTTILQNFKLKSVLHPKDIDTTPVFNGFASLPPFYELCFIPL
Method: as §1, §2

rat Cyp 2D2 = biological target: T5, rat Cyp 2D2 (Rattus norvegicus, UniProt P10634); assay: Recombinant rat Cyp phenotype profiling, 2D2; conditions: 60 min
T5 construct: purchased BD Gentest; host or cells: baculovirus infected insect cells
T5 sequence (P10634 whole entry): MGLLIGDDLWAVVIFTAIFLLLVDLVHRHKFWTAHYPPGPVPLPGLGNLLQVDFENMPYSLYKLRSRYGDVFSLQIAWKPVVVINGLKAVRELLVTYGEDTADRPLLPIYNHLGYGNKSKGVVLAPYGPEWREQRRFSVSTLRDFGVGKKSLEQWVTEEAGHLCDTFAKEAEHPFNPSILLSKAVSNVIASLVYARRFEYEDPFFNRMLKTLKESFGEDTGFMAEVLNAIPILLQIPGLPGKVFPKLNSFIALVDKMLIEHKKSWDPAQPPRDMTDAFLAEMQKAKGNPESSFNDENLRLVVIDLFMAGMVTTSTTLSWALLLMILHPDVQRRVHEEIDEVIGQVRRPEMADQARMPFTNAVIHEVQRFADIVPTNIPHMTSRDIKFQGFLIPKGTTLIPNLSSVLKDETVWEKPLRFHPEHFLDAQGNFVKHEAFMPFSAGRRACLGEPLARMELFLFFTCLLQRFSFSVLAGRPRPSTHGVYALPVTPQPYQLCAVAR
Method: as §1, §2

CYP2C9 = biological target: T6, CYP2C9 (Homo sapiens, UniProt P11712); assay: CYP inhibition evaluation in human liver microsomes, CYP2C9 (diclofenac); conditions: probe substrate diclofenac
T6 construct: from tissue; host or cells: human liver microsomes
T6 sequence (P11712 whole entry): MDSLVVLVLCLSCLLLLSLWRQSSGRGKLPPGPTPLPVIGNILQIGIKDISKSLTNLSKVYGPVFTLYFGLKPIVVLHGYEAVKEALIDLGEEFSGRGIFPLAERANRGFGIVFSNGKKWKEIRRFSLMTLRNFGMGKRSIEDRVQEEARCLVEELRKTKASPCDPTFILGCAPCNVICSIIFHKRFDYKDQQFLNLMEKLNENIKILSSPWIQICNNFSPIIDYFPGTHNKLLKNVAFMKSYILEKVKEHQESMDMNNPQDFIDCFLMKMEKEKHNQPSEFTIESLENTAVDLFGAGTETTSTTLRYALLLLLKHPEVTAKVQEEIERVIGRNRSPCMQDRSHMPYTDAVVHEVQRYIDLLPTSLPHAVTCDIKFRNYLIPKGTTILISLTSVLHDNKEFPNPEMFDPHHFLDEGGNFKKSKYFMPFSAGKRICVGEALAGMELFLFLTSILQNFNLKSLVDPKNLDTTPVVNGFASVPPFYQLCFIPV
Method: Incubations were performed in human liver microsomes using probe substrate concentrations similar to their corresponding Km values. Enzyme activity was evaluated in the presence of various concentrations of A-998679. The incubations consisted of the test article at varying concentrations (0–30 μM), probe substrate (concentration ~Km, see Table A2), human liver microsomal protein and 1 mM NADPH in 50 mM phosphate buffer at pH 7.4. Relative quantitation of the metabolites was obtained by LC-MS/MS using an ABSciex (Foster City, CA) API3000 or API4000 Qtrap hybrid linear ion trap mass spectrometer equipped with a TurboIonspray source using either PerkinElmer series 200 pumps or Agilent 1100 series pump with a Leap autosampler. Analytes were separated using a Phenomenex Prodigy ODS(3) 5 μm, 50 × 2.0 mm column at 50°C, eluted and detected under the specific conditions listed in Tables A3, A4, and A5. The analyte to internal standard peak area ratios were determined using Analyst 1.4 software (Applied Biosytems, Carlsbad, CA). The peak area ratios observed in the presence of test article were compared to the vehicle control in order to determine percent activity. To determine the IC50, the data were plotted as Log [dose] μM vs. % inhibition, and analyzed with a sigmoidal dose-response (variable slope) fitting equation. […]

T1 sequence (P04799 whole entry): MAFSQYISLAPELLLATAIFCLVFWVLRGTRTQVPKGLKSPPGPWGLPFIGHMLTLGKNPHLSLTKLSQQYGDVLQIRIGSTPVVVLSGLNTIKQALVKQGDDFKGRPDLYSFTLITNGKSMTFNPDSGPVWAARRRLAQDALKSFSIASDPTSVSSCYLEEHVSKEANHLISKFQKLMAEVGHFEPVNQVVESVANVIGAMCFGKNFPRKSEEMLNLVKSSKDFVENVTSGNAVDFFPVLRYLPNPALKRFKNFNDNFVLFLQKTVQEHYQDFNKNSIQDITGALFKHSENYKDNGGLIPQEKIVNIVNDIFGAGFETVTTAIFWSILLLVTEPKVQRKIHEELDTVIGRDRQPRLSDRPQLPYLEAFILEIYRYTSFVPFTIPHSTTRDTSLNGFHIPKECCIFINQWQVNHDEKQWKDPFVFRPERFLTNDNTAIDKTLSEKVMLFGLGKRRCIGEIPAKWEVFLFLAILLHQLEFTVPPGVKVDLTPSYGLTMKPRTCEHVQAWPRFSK

% parent remaining (rat Cyp1a2; recombinant rat Cyp 1A2, 0.10 μM): 0% | % parent remaining (rat Cyp1a2; recombinant rat Cyp 1A2, 0.21 μM): 0% | % parent remaining (rat Cyp 2A1; recombinant rat Cyp 2A1, 0.10 μM): 100% | % parent remaining (rat Cyp 2A1; recombinant rat Cyp 2A1, 0.21 μM): 100% | % parent remaining (rat Cyp2b1; recombinant rat Cyp 2B1, 0.10 μM): 87.0% | % parent remaining (rat Cyp2b1; recombinant rat Cyp 2B1, 0.21 μM): 34.5% | % parent remaining (rat Cyp 2C6; recombinant rat Cyp 2C6, 0.10 μM): 91.0% | % parent remaining (rat Cyp 2C6; recombinant rat Cyp 2C6, 0.21 μM): 88.8% | % parent remaining (rat Cyp 2D2; recombinant rat Cyp 2D2, 0.10 μM): 100% | % parent remaining (rat Cyp 2D2; recombinant rat Cyp 2D2, 0.21 μM): 98.1% | IC50 (CYP2C9): > 30 µM
Structure (SMILES): N#Cc1cccc(-c2noc(-c3cccnc3)n2)c1 [A-998679, 3-(5-pyridin-3-yl-1,2,4-oxadiazol-3-yl) benzonitrile]
